The text below walks through data of patent US20050069544A1, “Pharmaceutical composition and a method of treatment” (priority 1998, published 2005).

In assay [1] the test system is CD3+ CD4+ T-helper cells of AIHA patients. In words: Flow cytometry of CD3, CD4 and intracellular cytokines in PBMC from AIHA patients. It is filed as cell-based, human. The note with it: AIHA patient; FIGS. 24B to 24E. The procedure:
The secretion of cytokines identified in Example 1.3 by T-helper cells is confirmed by flow cytometery analysis. Simultaneous measurement of surface molecules CD3 and CD4 and intracellular cytokines IFN-γ or IL-10 was carried out using three colour flow cytometry analysis in PBMC, isolated from RhD-alloimmunised donors, cultured with either no antigen or RhD peptide for five days after stimulation. All analysis was carried out using Expo v2 analysis software (applied Cytometry Systems). The CD3+ T-cells were gated open and the numbers of IFN-γ+ and CD4+ cells were assessed. In all donors tested there was a significant increase in the proportion of CD4+ IFN-γ+CD3+ T-cells to at least one of the RhD peptides tested. In the representative example shown in FIGS. 12A to 12L it can be seen that the proportion of CD4+ IFN-γ+cells was 4.2% in unstimulated cultures (FIG. 12E). […] The IL-10 and CD4+ expression was also assessed on CD3+ gated population of T-cells. In PBMC cultures isolated from the alloimmune donor shown, there was an increase in the proportion of CD4+ IL-10+T-cells from 2.4% in unstimulated PBMC cultures (FIG. 12I) to 6.5% in culture stimulated with RhD peptide 13 (FIG. 12J) to 6.2% in cultures stimulated with RhD peptide 17 (FIG. 12K) and 5.9% with RhD peptide 28 (FIG. 12L).
The secretion of cytokines identified in Example 2.3 by T-cells is confirmed utilising the experiments mentioned in Example 1.4, which were repeated using PBMC isolated from patients with AIHA.

The test system of a further assay is PBMC from AIHA patients. As to the kind of experiment: celELISA of cytokine production by PBMC from AIHA patients. It is filed as cell-based, human. The note with it: AIHA patient (AIHA26); FIG. 24A. As for the experimental part: Cultured T-cells are stimulated with each of the epitopes given in Table 1 and after 5 days the responding cells were transferred to flat-bottomed microtitre plates (96-well Nunc-Immuno Maxisorp) coated with […] per well of monoclonal anti-cytokine capture antibody diluted in 0.05M alkaline carbonate coating buffer pH 9.6. Unbound capture antibody was removed by two washes with HBSS and non-specific binding potential blocked by incubation with 200 μl per well of phosphate buffered saline, pH 7.4 (PBS containing 3% BSA). […]
After six washes with 0.5% Tween/PBS, 100 μl of 1:100,000 ExtrAvidin-alkaline phosphatase conjugate (Sigma) was then added to each of the wells and incubated at room temperature for 30 minutes. […] The absorbance at 405 nm was then measured using a Multiscan plate reader (Labsystems Basingstoke UK).
Cytokine secretion was measured by interpolation from a standard curve generated by incubating duplicate wells with doubling dilutions of recombinant human IFN-γ or IL-10 or TGF-β (Pharmingen). The standard curves were modelled by a smoothed cubic spline function applied to the absorbance reading and the cytokine concentrations after a quasilogarithmic transformation, where: quasiloge(z)=loge[z+{square root}[z^2+1]). […]

On to “WMFWPSFNSALLRSP (Residue 217-231 RhD; listed as Homo sapiens) [compound 36]”, for which, in assay [1], the “CD3+ CD4+ T helper cells expressing intracellular IL-10” value is recorded as “expansion of a CD3+ CD4+population of T helper cells”. Besides, the “IL-10 production by PBMC” value in the assay with PBMC from AIHA patients is “induces the production of IL-10”.
